The values below come from patent US20250295799A1, “ANTIBODY-DRUG CONJUGATES TARGETING GLYPICAN-3 AND METHODS OF USE” (Zymeworks BC Inc., priority 2022, published 2025).

A value given as a limit tells only on which side of the number the result lay.

In assay [1] the test system is JHH-7 cells (GPC3-high). Kind of assay: On-cell binding by flow cytometry. Particulars: 24 h at 4 °C. The procedure:
Briefly, cells were seeded at 50,000 cells/well in V-bottom 96-well plates and treated with antibody for 24 hours at 4° C. to prevent internalization. […] Following incubation and washing, fluorescence was detected by flow cytometry on a BD LSRFortessa™ Cell Analyzer (BD Biosciences, Franklin Lake, NJ) with 1,000 minimum events collected per well. AF647/APC-A GeoMean (fluorescence signal geometric mean, proportional to anti-Human AF647 binding) in live cell population was plotted against antibody concentration using GraphPad Prism Version 9 (GraphPad Software, San Diego, CA). The Bmax, Curve Hill Slope (h) and Kd values were derived from the “Specific binding with Hill slope” nonlinear regression curve fit in GraphPad Prism Version 9.
The on-cell binding capabilities of light chain (LC)-modified M3-H18L6 antibody constructs were assessed on JHH-7 (hepatocellular carcinoma; GPC3-high) and JHH-5 (hepatocellular carcinoma; GPC3-mid) by flow cytometry as described below. […] The assay was carried out as described in Example 13.
Briefly, plasma stress was carried out by incubating M3-H18L6 LC-modified antibodies in mouse plasma (BioIVT, Westbury, NY; Cat. No. MSE00PL38NC-0103070) for 14 days in a 37° C./5% CO2 incubator. […] Following incubation and washing, fluorescence was detected by flow cytometry on a BD LSRFortessa™ Cell Analyzer (BD Biosciences, Franklin Lake, NJ) with 1,000 minimum events collected per well. AF647/APC-A GeoMean (fluorescence signal geometric mean, proportional to anti-Human AF647 binding) in live cell population was plotted against antibody concentration using GraphPad Prism Version 9 (GraphPad Software, San Diego, CA). […] Following incubation, cells were dissociated, washed, and surface AF488 fluorescence was quenched using an anti-AF488 antibody (Life Technologies, Carlsbad, CA; Cat. No. A-11094) at 100 nM for 30 minutes at 4° C. Quenched AF488 fluorescence (internalized fluorescence) was detected by flow cytometry on a BD LSRFortessa™ Cell Analyzer (BD Biosciences, Franklin Lake, NJ) with 1,000 minimum events collected per well.

Assay [2] deals with Hep G2 cells (high GPC3-expressing). Kind of assay: Internalization by flow cytometry (quenched AF488). Type of assay: cell-based. Conditions: antibody 10 nM. The procedure:
(§1) Cells were seeded at 50,000 cells/well in 48-well plates and incubated overnight under standard culturing conditions (37° C./5% CO2) in Gibco™ Dulbecco's Modified Eagle Media (DMEM) (Thermo Fisher Scientific, Waltham, MA; Cat. No. 11995040) with 10% Fetal Bovine Serum (FBS) (Thermo Fisher Scientific, Waltham, MA; Cat. No. 12483020) for Hep G2 cells, and Gibco™ William's E Medium, GlutaMAX™ Supplement (Thermo Fisher Scientific, Waltham, MA; Cat. No. 32551020) with 10% FBS (Thermo Fisher Scientific, Waltham, MA; Cat. No. 12483020) for JHH-7 cells. Coupled antibodies were added to cells the following day at 10 nM or at 100 nM and incubated under standard culturing conditions for 5-24 hours to allow for internalization. Following incubation, cells were dissociated, washed, and surface AF488 fluorescence was quenched using an anti-AF488 antibody (Life Technologies, Carlsbad, CA; Cat. No. A-11094) at 100 nM for 30 minutes at 4° C. Quenched AF488 fluorescence (internalized fluorescence) was detected by flow cytometry on a BD LSRFortessa™ Cell Analyzer (BD Biosciences, Franklin Lake, NJ) with 1,000 minimum events collected per well.

The subject of assay [3] is HepG2 cells (GPC3-high). In words: On-cell binding by flow cytometry. Conditions: 24 h at 4 °C. The procedure:
Briefly, cells were seeded at 50,000 cells/well in V-bottom 96-well plates and treated with antibody for 24 hours at 4° C. to prevent internalization. […] Following incubation and washing, fluorescence was detected by flow cytometry on a BD LSRFortessa™ Cell Analyzer (BD Biosciences, Franklin Lake, NJ) with 1,000 minimum events collected per well.

Assay [4] has as its system JHH-7 cells (high GPC3-expressing). Kind of assay: Internalization by flow cytometry (quenched AF488). It counts as cell-based. Particulars: antibody 10 nM. The procedure:
as §1
as §1, with “CO2)” for “CO2) in Gibco™ Dulbecco's Modified Eagle Media (DMEM) (Thermo Fisher Scientific, Waltham, MA; Cat. No. 11995040) with 10% Fetal Bovine Serum (FBS) (Thermo Fisher Scientific, Waltham, MA; Cat. No. 12483020) for Hep G2 cells, and”, “12483020).” for “12483020) for JHH-7 cells.”, “5” for “10 nM or at 100”, “24” for “5-24”, “well. […]” for “well.”

For the substance palivizumab [v22277 (palivizumab)], the Kd in assay [1] and in assay [3] was greater than 60 nM throughout. Besides, the “Internalized fluorescence, fold increase over palivizumab, Hep G2, 5 hours” value in assay [2] (5 hours) came to 1.0 fold. Also, the “Internalized fluorescence, fold increase over palivizumab, Hep G2, 24 hours” value in assay [2] (24 hours) stood at 1.0 fold. For the same substance, the “Internalized fluorescence, fold increase over palivizumab, JHH-7, 5 hours” value in assay [4] (5 hours) came to 1.0 fold. Also, the “Internalized fluorescence, fold increase over palivizumab, JHH-7, 24 hours” value in assay [4] (24 hours) turned out to be 1.0 fold.
